Data as given in ChEMBL document CHEMBL5357027, “Annonaceous Acetogenins Synergistically Inhibit Hepatocellular Carcinoma with Sorafenib” (J Nat Prod, 2024).
Activity calls are given as the source filed them. The calls are words filed in the database; no cut-off is given here.

Legend:
[1] = tested on: HCCLM3; assay: Induction of apoptosis in human HCCLM3 cells assessed as late apoptotic cells at 4 uM incubated for 48 hrs by Annexin V/FITC-PI staining based flow cytometry (reference value: 0.07%); type: functional
[2] = Toxicity in nude mouse xenografted with human HCCLM3 cells assessed as decrease in body weight at 1 to 8 mg/kg, PO in presence of sorafenib measured every other day for 21 days; type: organism-based; conditions: in vivo, 504 h, dose 1-8 mg/kg, time 21 day
[3] = Toxicity in nude mouse xenografted with human HCCLM3 cells assessed as spleen damage at 1 to 8 mg/kg, PO in presence of sorafenib measured for 21 days by H and E staining based analysis; type: organism-based; conditions: in vivo, 504 h, dose 1-8 mg/kg, time 21 day
[4] = tested on: Huh-7; assay: Synergistic cytotoxicity against human Huh-7 cells assessed as cell growth inhibition by measuring synergy score at 1 to 16 uM incubated for 48 hrs in presence of sorafenib at 1 to 16 uM by MTT assay; type: functional; conditions: dose 1-16 µM
[5] = tested on: Huh-7; assay: Synergistic inhibition of mitochondrial function in human Huh-7 cells assessed as reduction in intracellular ATP level at 8 uM incubated for 48 hrs in presence of 16 uM sorafenib; type: functional, cell-based
[6] = tested on: HCCLM3; assay: Induction of apoptosis in human HCCLM3 cells assessed as early apoptotic cells at 4 uM incubated for 48 hrs in presence of 4uM sorafenib by Annexin V/FITC-PI staining based flow cytometry (reference value: 0.05%); type: functional
[7] = Toxicity in nude mouse xenografted with human HCCLM3 cells assessed as kidney damage at 4 to 8 mg/kg, PO measured for 21 days by H and E staining based analysis; type: organism-based; conditions: in vivo, 504 h, dose 4-8 mg/kg, time 21 day
[8] = tested on: MHCC97H; assay: Synergistic inhibition of mitochondrial function in human MHCC97H cells assessed as reduction in intracellular ATP level at 8 uM incubated for 48 hrs in presence of 16 uM sorafenib; type: functional, cell-based
[9] = Toxicity in nude mouse xenografted with human HCCLM3 cells assessed as decrease in body weight at 4 to 8 mg/kg, PO measured every other day for 21 days; type: organism-based; conditions: in vivo, 504 h, dose 4-8 mg/kg, time 21 day
[10] = tested on: HCCLM3; assay: Induction of apoptosis in human HCCLM3 cells assessed as viable cells at 4 uM incubated for 48 hrs by Annexin V/FITC-PI staining based flow cytometry (reference value: 96.55%); type: functional; conditions: read-out: Activity
[11] = tested on: Huh-7; assay: Inhibition of mitochondrial function in human Huh-7 cells assessed as reduction in ATP production at 8 uM incubated for 48 hrs; type: functional, cell-based
[12] = tested on: HepG2; assay: Inhibition of mitochondrial function in human HepG2 cells assessed as reduction in ATP production at 8 uM incubated for 48 hrs; type: functional, cell-based
[13] = tested on: Huh-7; assay: Cytotoxicity against human Huh-7 cells assessed as cell growth inhibition incubated for 48 hrs by MTT assay; type: functional, cell-based; conditions: Huh-7, 48 h
[14] = tested on: HepG2; assay: Cytotoxicity against human HepG2 cells assessed as cell growth inhibition incubated for 48 hrs by MTT assay; type: functional, cell-based; conditions: HepG2, 48 h
[15] = Toxicity in nude mouse xenografted with human HCCLM3 cells assessed as lung damage at 4 to 8 mg/kg, PO measured for 21 days by H and E staining based analysis; type: organism-based; conditions: in vivo, 504 h, dose 4-8 mg/kg, time 21 day
[16] = tested on: HepG2; assay: Synergistic cytotoxicity against human HepG2 cells assessed as cell growth inhibition by measuring synergy score at 1 to 16 uM incubated for 48 hrs in presence of sorafenib at 1 to 16 uM by MTT assay; type: functional; conditions: dose 1-16 µM
[17] = tested on: HepG2; assay: Synergistic inhibition of mitochondrial function in human HepG2 cells assessed as reduction in intracellular ATP level at 8 uM incubated for 48 hrs in presence of 16 uM sorafenib; type: functional, cell-based
[18] = tested on: HCCLM3; assay: Induction of apoptosis in human HCCLM3 cells assessed as apoptotic ratio at 4 uM incubated for 48 hrs in presence of 4uM sorafenib by Annexin V/FITC-PI staining based flow cytometry relative to control; type: functional
[19] = tested on: HCCLM3; assay: Induction of apoptosis in human HCCLM3 cells assessed as necrotic cells at 4 uM incubated for 48 hrs by Annexin V/FITC-PI staining based flow cytometry (reference value: 3.33%); type: functional
[20] = Toxicity in nude mouse xenografted with human HCCLM3 cells assessed as spleen damage at 4 to 8 mg/kg, PO measured for 21 days by H and E staining based analysis; type: organism-based; conditions: in vivo, 504 h, dose 4-8 mg/kg, time 21 day
[21] = tested on: MHCC97H; assay: Cytotoxicity against human MHCC97H cells assessed as cell growth inhibition incubated for 48 hrs by MTT assay; type: functional, cell-based
[22] = tested on: MHCC97H; assay: Inhibition of mitochondrial function in human MHCC97H cells assessed as reduction in ATP production at 8 uM incubated for 48 hrs; type: functional, cell-based
[23] = tested on: HCCLM3; assay: Synergistic inhibition of mitochondrial function in human HCCLM3 cells assessed as reduction in intracellular ATP level at 8 uM incubated for 48 hrs in presence of 16 uM sorafenib; type: functional, cell-based
[24] = tested on: HCCLM3; assay: Cytotoxicity against human HCCLM3 cells assessed as cell growth inhibition incubated for 48 hrs by MTT assay; type: functional, cell-based; conditions: HCCLM3, 48 h
[25] = tested on: HCCLM3; assay: Induction of apoptosis in human HCCLM3 cells assessed as necrotic cells at 4 uM incubated for 48 hrs in presence of 4uM sorafenib by Annexin V/FITC-PI staining based flow cytometry (reference value: 3.33%); type: functional
[26] = tested on: HCCLM3; assay: Synergistic antitumor activity against human HCCLM3 cells xenografted in nude mouse assessed as decrease in tumor weight at 4 to 8 mg/kg, PO in presence of 32 mg/kg sorafenib measured every other day for 21 days; type: functional, organism-based; conditions: dose 4-8 mg/kg, time 21.0 day
[27] = tested on: HCCLM3; assay: Induction of apoptosis in human HCCLM3 cells assessed as late apoptotic cells at 4 uM incubated for 48 hrs in presence of 4uM sorafenib by Annexin V/FITC-PI staining based flow cytometry (reference value: 0.07%); type: functional
[28] = tested on: HCCLM3; assay: Induction of apoptosis in human HCCLM3 cells assessed as early apoptotic cells at 4 uM incubated for 48 hrs by Annexin V/FITC-PI staining based flow cytometry (reference value: 0.05%); type: functional
[29] = Toxicity in nude mouse xenografted with human HCCLM3 cells assessed as heart damage at 4 to 8 mg/kg, PO measured for 21 days by H and E staining based; type: organism-based; conditions: in vivo, 504 h, dose 4-8 mg/kg, time 21 day
[30] = tested on: HCCLM3; assay: Inhibition of mitochondrial respiratory chain complex I in human HCCLM3 incubated for 24 hrs; type: cell-based
[31] = Toxicity in nude mouse xenografted with human HCCLM3 cells assessed as liver damage at 1 to 8 mg/kg, PO in presence of sorafenib measured for 21 days by H and E staining based analysis; type: organism-based; conditions: in vivo, 504 h, dose 1-8 mg/kg, time 21 day
[32] = tested on: HCCLM3; assay: Induction of apoptosis in human HCCLM3 cells assessed as viable cells at 4 uM incubated for 48 hrs in presence of 4uM sorafenib by Annexin V/FITC-PI staining based flow cytometry (reference value: 96.55%); type: functional; conditions: read-out: Activity
[33] = tested on: HCCLM3; assay: Synergistic antitumor activity against human HCCLM3 cells xenografted in nude mouse assessed as induction of aPOptosis in tumor at 4 to 8 mg/kg, PO in presence of 32 mg/kg sorafenib and measured for 21 days by tunel staining based immunohistochemical analysis; type: functional, organism-based; conditions: dose 4-8 mg/kg, time 21.0 day
[34] = tested on: HCCLM3; assay: Antitumor activity against human HCCLM3 cells xenografted in nude mouse assessed as decrease in tumor volume at 4 to 8 mg/kg, PO measured every other day for 21 days; type: functional, organism-based; conditions: dose 4-8 mg/kg, time 21.0 day
[35] = tested on: HCCLM3; assay: Inhibition of mitochondrial function in human HCCLM3 cells assessed as reduction in ATP production at 8 uM incubated for 48 hrs; type: functional, cell-based
[36] = Toxicity in nude mouse xenografted with human HCCLM3 cells assessed as liver damage at 4 to 8 mg/kg, PO measured for 21 days by H and E staining based analysis; type: organism-based; conditions: in vivo, 504 h, dose 4-8 mg/kg, time 21 day
[37] = tested on: HCCLM3; assay: Synergistic antitumor activity against human HCCLM3 cells xenografted in nude mouse assessed as decrease in tumor volume at 4 to 8 mg/kg, PO in presence of 32 mg/kg sorafenib measured every other day for 21 days; type: functional, organism-based; conditions: dose 4-8 mg/kg, time 21.0 day
[38] = Toxicity in nude mouse xenografted with human HCCLM3 cells assessed as kidney damage at 1 to 8 mg/kg, PO in presence of sorafenib measured for 21 days by H and E staining based analysis; type: organism-based; conditions: in vivo, 504 h, dose 1-8 mg/kg, time 21 day
[39] = tested on: HCCLM3; assay: Synergistic cytotoxicity against human HCCLM3 cells assessed as cell growth inhibition by measuring synergy score at 1 to 16 uM incubated for 48 hrs in presence of sorafenib at 1 to 16 uM by MTT assay; type: functional; conditions: dose 1-16 µM
[40] = tested on: MHCC97H; assay: Synergistic cytotoxicity against human MHCC97H cells assessed as cell growth inhibition by measuring synergy score at 1 to 16 uM incubated for 48 hrs in presence of sorafenib at 1 to 16 uM by MTT assay; type: functional; conditions: dose 1-16 µM
[41] = Toxicity in nude mouse xenografted with human HCCLM3 cells assessed as lung damage at 1 to 8 mg/kg, PO in presence of sorafenib measured for 21 days by H and E staining based analysis; type: organism-based; conditions: in vivo, 504 h, dose 1-8 mg/kg, time 21 day
[42] = Toxicity in nude mouse xenografted with human HCCLM3 cells assessed as heart damage at 1 to 8 mg/kg, PO in presence of sorafenib measured for 21 days by H and E staining based; type: organism-based; conditions: in vivo, 504 h, dose 1-8 mg/kg, time 21 day

Compound: CCCCCCCCCCCC[C@@H](O)[C@H]1CC[C@H]([C@H](O)CCCC[C@@H](O)CCCCC[C@@H](O)CC2=C[C@H](C)OC2=O)O1
- Activity [1]: 1.46%
- Activity [2]: Non-Toxic
- Activity [3]: Non-Toxic
- Activity [4]: 1.6
- inhibition [5]: Active
- Activity [6]: 17.91%
- Activity [7]: Non-Toxic
- inhibition [8]: Active
- Activity [9]: Non-Toxic
- viability at 4 µM [10]: 93.6%
- inhibition [11]: Active
- inhibition [12]: Active
- IC50 [13]: 7.4 µM
- IC50 [14]: 7.4 µM
- Activity [15]: Non-Toxic
- Activity [16]: 4.1
- inhibition [17]: Active
- Activity [18]: 18.5%
- Activity [19]: 3.24%
- Activity [20]: Non-Toxic
- IC50 [21]: 7.4 µM
- inhibition [22]: Active
- Activity [23]: Active
- IC50 [24]: 7.4 µM
- Activity [25]: 5.02%
- Activity [26]: Active
- Activity [27]: 3.24%
- Activity [28]: 1.7%
- Activity [29]: Non-Toxic
- inhibition [30]: Active
- Activity [31]: Non-Toxic
- viability at 4 µM [32]: 73.8%
- Activity [33]: Active
- Activity [34]: Active
- inhibition [35]: Active
- Activity [36]: Non-Toxic
- Activity [37]: Active
- Activity [38]: Non-Toxic
- Activity [39]: 12.1
- Activity [40]: 0.7
- Activity [41]: Non-Toxic
- Activity [42]: Non-Toxic
